# Measurements published in a melting point compilation (Tetko et al.; mined from patent text by program, amines drawn as free bases though some values may be those of a salt).
row,SMILES,melting point [°C]
1,CN(Cc1ccccc1)c1cc(Oc2cccc(C(F)(F)F)c2)nc(C(=O)O)c1,80 to 82
2,COC(=O)c1cc(OC)c(N(C)C(C)=O)c(OC)c1,115 to 116
3,CC(C)(C)OC(=O)N1CCCN(c2ccc(N)cc2C#N)CC1,38
4,CC1(C)CC(=C(c2ccc(O)cc2)c2ccc(S(C)(=O)=O)cc2)CC(C)(C)C1,149 to 150
5,Nc1c(F)c(F)c(F)c(F)c1S(=O)(=O)O,272 to 276
6,CCOc1ccc(S(=O)(=O)N(CC(=O)NN=C2C(=O)Nc3ccccc32)c2ccccc2)cc1,136
7,CN1CC(C(=O)CO)CC2c3cccc4[nH]cc(c34)CC21 (centres undefined),202 to 203
8,O=C1c2nccnc2C(O)N1c1ccc(Cl)cn1 (centres undefined),236
9,CC(=O)Nc1ccccc1-c1ccc(F)cc1,123 to 124
10,COC(=O)NC(Cc1c[nH]c2ccccc12)C(=O)OCc1cc(C)cc(C)c1 (centres undefined),128 to 129
11,Cc1cc(C=O)cc(Oc2nc(Cl)nc(Cl)c2C(C)C)c1,227 to 229
12,COc1cc(F)ccc1-c1ccc(S(=O)(=O)N2c3ccccc3CC2C(=O)O)cc1 (centres undefined),93 to 100
13,COc1cccc(NC(=O)NC2N=C(C(C)C)c3ccccc3N(CC(=O)N3CC4CCC(CC4)C3)C2=O)c1 (centres undefined),139 to 142
14,[N-]=[N+]=NOS(=O)(=O)N=[N+]=[N-],60
15,CC(C)c1ccc(-c2ncc(-c3cccc(C(=O)O)c3)s2)cc1,237 to 239
16,COc1cc(C(=O)c2nc(C#N)c3ccccn23)ccc1[N+](=O)[O-],219
17,CSC(C(N)=O)c1ccccc1N (centres undefined),98.5 to 99.5
18,Cc1ccc2c3c(ccc2n1)OC[C@H](CNCCCc1csc2ccc(F)cc12)O3,117 to 120
19,O=C(NO)c1cnc(N2CCC(CNS(=O)(=O)c3ccc(C(=O)Nc4ccc(Cl)c(-c5ccccn5)c4)c(Cl)c3)CC2)nc1,172 to 173
20,CN(c1ccc([N+](=O)[O-])cc1[N+](=O)[O-])S(=O)(=O)c1ccccc1,152 to 153
21,N#CCNC(=O)c1ccc([N+](=O)[O-])cc1,147 to 149
22,CC(C)(C)OC(=O)NC(Cc1ccccc1)C1CC(Cc2ccccc2)=NO1 (centres undefined),106 to 107
23,C=CCOc1ccc2c(=O)c(C)c(-c3ccccc3)oc2c1C(=O)C=Cc1cc(OC)c(OC)c(OC)c1,121 to 123

row,SMILES,melting point [°C]
1,C=CC12COc3cc(Cl)ccc3C1=NN(C(=O)Nc1ccc(C(F)(F)F)cc1)C2 (centres undefined),157 to 161
2,C[C@H]1CCCN(CCCOc2ccc(-c3nc4cccnc4c(=O)n3C)cc2)C1,83.5 to 88.5
3,CSc1ccc(C(=O)c2c(C)cc3n2CCC3C(=O)O)n1C (centres undefined),182 to 184
4,CCN(C(=O)c1cc(Cl)c(NC(=O)C(F)(F)F)cc1OC)C1CCN(Cc2ccccc2)CC1,198 to 200
5,COc1ccc(CN2C(=O)[C@H](NC(=O)COc3ccccc3)[C@@H]2c2ccccc2C2OCCO2)c(OC)c1 (relative stereo),137 to 138
6,Cn1cc(C(=O)NCc2ccc(Cl)cc2)c(=O)c2cc(I)ccc21,205 to 208
7,O[C@@H]1C=CC=C(Cl)[C@@H]1O (relative stereo),95 to 96
8,CC(O)c1cn(C(c2ccccc2)(c2ccccc2)c2ccccc2)cn1 (centres undefined),156 to 157
9,Cc1nc(C(O)(c2ccsc2)C(F)(F)F)sc1C (centres undefined),90 to 92
10,c1ccc(N2CCN(Cc3nc4ccccc4[nH]3)CC2)nc1,220 to 221
11,CC[C@H]1[C@H](O)[C@@H](C)C(=O)N1c1ccc(C#N)c(Cl)c1,120 to 123
12,CCn1c(=O)c2[nH]c(C(C)C)nc2n(Cc2ccc3c(c2)OCO3)c1=O,200 to 232
13,O=C(Nc1ccc(-n2nc(C(F)(F)F)cc2C(F)(F)F)cc1)c1c(F)ccc([N+](=O)[O-])c1F,187 to 189
14,COc1ccc(C2Sc3ccc(OC)cc3N(CCN(C)C)C(=O)C2O)cc1 (centres undefined),127 to 129
15,Cc1nnsc1C(=O)Nc1ccc(-n2nc(C(F)(F)F)cc2C(F)(F)F)c(C(F)(F)F)c1,134 to 136
16,CCCCCCCCC(=O)N(C)O,29
17,COc1ccc(Br)cc1CC#N,60.5 to 60.9
18,COc1cc(CCl)c(CCNC(=O)C(F)(F)F)cc1OC,140
19,Cn1c(-c2ccccc2)cc(O)c(C(=N)c2ccccc2)c1=O,238 to 240
20,CC(O)=C(C(=O)OCc1ccc([N+](=O)[O-])cc1)N1C(=O)C(NC(=O)COc2ccccc2)C1SS(=O)(=O)c1ccc(C)cc1 (centres undefined),159 to 160
21,CCOC(=O)c1cn(C)nc1NCc1ccc(-c2ccccc2C#N)cc1,151 to 152
22,O=C1C(c2ccccc2)=C(c2ccccc2)C(=O)N1c1cccc(F)c1,157 to 158
23,c1ccc(-c2cn([C@H]3CN4CCC3CC4)nn2)cc1,132

row,SMILES,melting point [°C]
1,CC[C@@H](c1ccccc1)N(Cc1ccc(C(=O)O)cc1)S(=O)(=O)c1ccc(F)c(F)c1,108 to 109
2,Nc1nnc(SCCCCc2ccccc2)s1,111
3,Cc1cc(C(=O)N2CCOCC2)ncc1C(c1cc(F)ccc1F)S(=O)(=O)c1ccc(F)cc1 (centres undefined),165 to 167
4,COC(=O)c1cc(CC#N)cc(Cc2nc3c(F)c(F)cc(F)c3s2)c1,130 to 132
5,CCn1cc(-c2cccc(C(F)(F)F)c2)c(=O)n1-c1ccc(F)cc1,92
6,COc1cccc(C(CCN2CCN(Cc3cccc(F)c3)CC2)C2(O)CCCCC2)c1 (centres undefined),131 to 133
7,O=C(O)C=CC12CC(c3ccccc31)c1ccccc12,220 to 222
8,O=C(C=Cc1cccc(-c2ccccc2)c1)Nc1ccc(CP2(=O)OCCCO2)cc1,204 to 205
9,CCCOCCOc1ccc(-c2ccc3c(c2)C=C(C(=O)Nc2ccc(CN(C)C4CCOCC4)cc2)CCS3(=O)=O)cc1,195 to 197
10,CCNC(=O)Oc1ccc(-c2nn(C3CCCC3)c3c(F)cccc23)cc1,159 to 160
11,CS(=O)(=O)Nc1ccc(Cn2ncc(Cl)c(Cl)c2=O)cc1,152 to 154
12,O=C(Nc1ccc2c(c1)CCC2)C(=O)N1CCC(Cc2ccccc2)CC1,106 to 109
13,O=C(N[C@@H](CSc1ccc(C(F)(F)F)cc1[N+](=O)[O-])C(=O)O)OCc1ccccc1,150 to 153
14,COC(=O)c1cc(Cl)c(NC(C)=O)cc1OC1C=CCCC1 (centres undefined),100 to 102
15,O=C1c2ccccc2C(=O)N1CCCCN(CCCCN1C(=O)c2ccccc2C1=O)CCOc1cccc2c1SCCC2,66
16,CCC1N=C(c2ccccc2Cl)c2cc(CCC(=O)OC)sc2NC1=O (centres undefined),187 to 189
17,COc1ccc(CS[C@@H]2CN[C@H](C(=O)O)C2)cc1,198 to 200
18,CC(C)CC1(CC(C)C)CCc2c(OCc3ccc4ccccc4n3)cccc2C1O (centres undefined),144 to 146
19,CC(=O)Nc1cc(Oc2ccc3c(C(=O)Nc4ccc(N5CCC[C@H](N)C5)c(C(F)(F)F)c4)cccc3c2)ncn1,218 to 228
20,Cc1cc(O)cnc1Cl,126 to 128
21,Cc1ccc(Sc2nc(-c3ccc(Cl)cc3)c(CCC(=O)O)o2)cc1,160 to 161
22,CC(=O)NCC1CN(c2ccc(N3CCC(O)(C#N)C(C)(C)C3)c(F)c2)C(=O)O1 (centres undefined),65 to 68
23,CCOC(=O)C1(F)C(=O)NC(=O)NC1O/N=C\c1ccc(C)o1 (centres undefined),163 to 164
